Literature values in US7018649B2 (Euro-Celtique, S.A., priority 2000, dated 2006).

Experiments:
[1] = in vivo
[2] = not given; remark: listed apart in the source
[3] = tested on: plasma-protein

solubility in dichloromethane and ethanol (dichloromethane and ethanol): freely soluble
solubility in water (water): not soluble
time to mean peak concentrations ([2]; after administration): 2.5 to 5 h
excretion in the feces ([2]; after metabolism): 10%
excretion in the urine ([2]; after metabolism): 70%
onset of antihypertensive activity ([2]; following administration): 2 to 5 h
plasma concentration at steady state ([2]; in vivo): 2 ng/mL
bioavailability ([2]; oral dose, gastrointestinal absorption): approximately 20%
plasma-protein bound [3]: 99%
Structure (SMILES): CCOC(=O)C1=C(C)NC(C)=C(C(=O)OC)C1c1cccc(Cl)c1Cl (racemic) [felodipine, 4-(2,3-dichlorophenyl)-1,4-dihydro-2,6-dimethyl-3,5-pyridinedicarboxylate]
most common adverse side effects [1]: peripheral edema and headaches
